Data published in paper PMC7155171, “Probing the Open Global Health Chemical Diversity Library for Multistage-Active Starting Points for Next-Generation Antimalarials” (ACS Infectious Diseases, 2020).
Read-outs that look alike come from different tables or passages of the source.

System: P. falciparum Dd2 (PfLuc) line expressing firefly luciferase, asexual blood stage
Assay: microbe, parasite or virus in culture
Assay type: cell-based, Plasmodium falciparum
Conditions: Plasmodium falciparum
[1] = DD2, 8-pt dose response, 96hr, read-out: P. falciparum Luciferase ABS 8-pt Reconfirmation Dose Response (96hr): IC50
[2] = DD2, 8-pt dose response, 96hr, read-out: P. falciparum Luciferase ABS 8-pt Reconfirmation Dose Response (96hr): Maximum inhibition (%)
[3] = DD2, read-out: P. falciparum Luciferase ABS 11-pt Reconfirmation Dose Response (48hr): IC50, 11-pt dose response, 48hr
[4] = DD2, 11-pt dose response, 48hr, read-out: P. falciparum Luciferase ABS 11-pt Reconfirmation Dose Response (48hr): Maximum inhibition (%)
[5] = DD2, 11-pt dose response, 96hr, read-out: P. falciparum Luciferase ABS 11-pt Reconfirmation Dose Response (96hr): IC50
[6] = DD2, 11-pt dose response, 96hr, read-out: P. falciparum Luciferase ABS 11-pt Reconfirmation Dose Response (96hr): Maximum inhibition (%)
[7] = DD2, read-out: CDD P. falciparum Luciferase ABS 11-pt Reconfirmation Dose Response (48hr): IC50 (μM), 11-pt dose response, 48hr
[8] = DD2, 8-pt dose response, 96hr, read-out: CDD P. falciparum Luciferase ABS 8-pt Reconfirmation Dose Response (96hr): IC50
[9] = DD2, 8-pt dose response, 96hr, read-out: CDD P. falciparum Luciferase ABS 8-pt Reconfirmation Dose Response (96hr): Maximum inhibition (%)
[10] = DD2, 11-pt dose response, 48hr, read-out: CDD P. falciparum Luciferase ABS 11-pt Reconfirmation Dose Response (48hr): Maximum inhibition (%)
[11] = DD2, 11-pt dose response, 96hr, read-out: CDD P. falciparum Luciferase ABS 11-pt Reconfirmation Dose Response (96hr): IC50
[12] = DD2, 11-pt dose response, 96hr, read-out: CDD P. falciparum Luciferase ABS 11-pt Reconfirmation Dose Response (96hr): Maximum inhibition (%)

Row | SMILES | IC50 [1] [µM] | Emax [2] [%] | further results
1 | O=S(=O)(NC[C@H]1C[C@@H]2CCN1C[C@@H]2CN1CCCC1)c1ccc(Cl)cc1 [DDD01024774] | 1.46 | 91 | –
2 | CN(C[C@H]1CN2CC[C@H]1C[C@@H]2CNC(=O)c1ccco1)c1ccccc1 [DDD01024849] | 1.76 | 83.2 | –
3 | O=C([C@@H]1Cc2[nH]cnc2CN1Cc1cc2ccccc2o1)N1CCCC1 [DDD01024952] | 1.42 | 91 | –
4 | CCC1CN(CC(=O)NCCN2CCCCCC2)c2ccccc2S1 (centres unmarked) [DDD01025851] | 1.73 | 82.5 | –
5 | CN1CC[C@H](N(Cc2ccccc2)CC2CC2)C[C@H](O)C1 [DDD01026225] | 1.29 | 82 | –
6 | CC(C)n1ncc2c1NC(=O)CC21C(=O)Nc2c(Cl)ccc(Cl)c21 (centres unmarked) [DDD01027128] | 1.59 | 94.1 | –
7 | CN1CCn2c(-c3cccc(F)c3)cnc2C12CCN(CC1CC1)CC2 [DDD01030549] | 1.2 | 84.4 | –
8 | c1cncc(-c2ccc3c(c2)CCC32CCNCC2)c1 [DDD01031368] | 1.35 | 95.6 | –
9 | Cc1ccc(CN2CCCC3(CCN(Cc4ccoc4)CC3)C2)cc1 [DDD01031609] | 1.16 | 88.7 | IC50 [3]: 3.17 µM; Emax [4]: 88.7%; IC50 [5]: 0.742 µM; Emax [6]: 98.3%
10 | c1ccc(NC[C@@H]2CCC[C@@H]3CN(Cc4cccnc4)C[C@@H]32)nc1 [DDD01032334] | 1.72 | 81.5 | –
11 | COc1cccc(-n2ccc3nc(N4CCCC4)ncc3c2=O)c1 [DDD01034957] | 1.6 | 95.4 | IC50 [3]: > 4.16 µM; Emax [4]: 13.2%; IC50 [5]: 0.531 µM; Emax [6]: 98.6%
12 | Fc1ccc(Sc2ccccc2CNC2=NCCN2)cc1 [DDD01035542] | 1.81 | 81.8 | –
13 | Fc1ccccc1Sc1ccccc1CNC1=NCCN1 [DDD01035543] | 1.57 | 83.6 | –
14 | O=C(Cn1ccc2ccc(Br)cc21)NC[C@@H]1CCCN2CCCC[C@H]12 [DDD01035644] | 2.57 | 81.8 | –
15 | c1cnc(N2CCC3(CC2)CN(CC2CC2)c2ccccc23)nc1 [DDD01036239] | 1.74 | 90.6 | –
16 | COc1ccc(CN2CC[C@@H](O)[C@@H]2Cc2ccccc2)cc1 [DDD01037044] | 1.83 | 77.4 | –
17 | CCc1ccc(-c2cc(C(F)(F)F)nc(N3CCC(N)CC3)n2)cc1 [DDD01037626] | 1.72 | 93.8 | IC50 [3]: 1.86 µM; Emax [4]: 98.9%; IC50 [5]: 0.828 µM; Emax [6]: 100%
18 | Cc1cc(C)n(CCCn2cncc2-c2ccc3c(c2)CC(C)N3C)n1 (centres unmarked) [DDD01056528] | 1.7 | 94.8 | –
19 | Cc1nn(C)c(C)c1CCn1cncc1-c1ccc2c(c1)CC(C)N2C (centres unmarked) [DDD01056530] | 1.85 | 94.7 | –
20 | CN(C)CCn1nc(C2CCN(Cc3ccccc3)C2)c2cccnc21 (centres unmarked) [DDD01056665] | 1.99 | 70.9 | –

Row | SMILES | IC50 [1] [µM] | Emax [2] [%] | further results
21 | Cc1cc(Cc2cccc(C(F)(F)F)c2)cc(C2CCCNC2)n1 (centres unmarked) [DDD01057885] | 1.24 | 92 | IC50 [3]: 4.53 µM; IC50 [5]: 0.958 µM; Emax [6]: 100%
22 | COc1cccc(OC)c1CNC(Cc1ccsc1)c1ccc(C)cn1 (centres unmarked) [DDD01058770] | 1.56 | – | –
23 | CCn1cncc1CN1CCN(CC2(c3ccc(C)cc3)CC2)CC1 [DDD01059073] | 1.26 | 85.6 | –
24 | CN(C(=O)c1ccon1)[C@@H]1CCC[C@@H](Oc2ccccc2)[C@@H]1O [DDD01059734] | 1.12 | 85.7 | –
25 | CN1CCCCC1c1ncc2c(n1)CCN(Cc1ccc(F)cc1)C2 (centres unmarked) [DDD01059924] | 1.65 | 84.5 | –
26 | Cc1cc(C)c2cc(CNC3CCCCC3)c3nn(C)c(=O)n3c2c1 [DDD01060652] | 1.15 | 88.2 | –
27 | Cc1cnccc1CN1CC[C@H](Oc2cccc(F)c2)[C@@](C)(O)C1 [DDD01060866] | 1.79 | 91.8 | –
28 | CCCOc1ccccc1CN[C@@H]1CCC[C@H]1Cc1cc(C)no1 [DDD01060989] | 2.71 | 79.8 | –
29 | COc1cccc([C@H]2CN(C(C)=O)[C@@H]3CCN(Cc4ccsc4)C[C@H]23)c1 [DDD01061089] | 1.31 | 82.2 | –
30 | CCC(CC)(CN)NC(C)c1ccccc1 (centres unmarked) [DDD01061915] | – | – | IC50 [7]: > 12.5 µM; IC50 [8]: 1.02 µM; Emax [9]: 85.9%; Emax [10]: 49.2%; IC50 [11]: > 1.39 µM; Emax [12]: 87.7%
31 | Cn1ccnc1C(O)(CCNCc1ccc(Cl)o1)C(F)(F)F (centres unmarked) [DDD01062848] | 2.81 | 78.7 | –
32 | Clc1cc(CN2CCCN3CCCC3C2)c2ncccc2c1 (centres unmarked) [DDD01063271] | 1.74 | 93 | –
33 | Cn1ccnc1CNC1CCCOc2c1ccc1ccccc21 (centres unmarked) [DDD01063614] | 1.52 | 80.3 | –
34 | CC(O)CN1CCC(CN(C)Cc2cc(F)cc3cccnc23)CC1 (centres unmarked) [DDD01063726] | 1.33 | 92.8 | –
35 | CC(C)(NCc1cccc(O)c1)c1ccc2c(c1)OCO2 [DDD01063924] | 1.21 | 84.9 | –
36 | CC(NCCc1nccn1Cc1ccccc1)c1cccs1 (centres unmarked) [DDD01065609] | 1.39 | 85.7 | –
37 | Cc1ccc(C(C)NCCc2nccn2Cc2ccccc2)o1 (centres unmarked) [DDD01065613] | 1.62 | 82.8 | –
38 | CCC(CNC(=O)CNC(C)=O)Oc1cccc(F)c1 (centres unmarked) [DDD01066100] | 2.09 | 83.9 | IC50 [3]: 6.31 µM; Emax [4]: 55.6%; IC50 [5]: 2.15 µM; Emax [6]: 83.4%
39 | CN(C)CCN(Cc1cccnc1)C(=O)c1ccn(-c2ccccc2)n1 [DDD01066387] | 1.43 | 81.1 | –
40 | CCN(C)CC1CCN(S(=O)(=O)c2cc(C)c(F)cc2Cl)C1 (centres unmarked) [DDD01067996] | 1.72 | 86.1 | –

Row | SMILES | IC50 [1] [µM] | Emax [2] [%] | further results
41 | CCN1CCC(CNCc2cc(C)ccc2OC)C1 (centres unmarked) [DDD01069824] | 1.26 | 90.1 | –
42 | CNS(=O)(=O)c1cccc(C(C)NCc2ccccc2OC)c1 (centres unmarked) [DDD01069885] | 1.18 | 80.1 | –
43 | O=C(CCN1CCCC1c1cccc2c1OCCO2)N1CCCCC1 (centres unmarked) [DDD01070009] | – | – | IC50 [7]: 6.96 µM; IC50 [8]: 1.06 µM; Emax [9]: 80.3%; Emax [10]: 51%; IC50 [11]: 2.64 µM; Emax [12]: 84.9%
44 | CCN(CC1CN(Cc2nc(C3CC3)no2)CCO1)c1cccnn1 (centres unmarked) [DDD01070232] | 1.86 | 79.6 | –
45 | Fc1ccc2c(C3=CCN(Cc4nnc(C5CCC5)o4)CC3)c[nH]c2c1 [DDD01071325] | 1.7 | 88.7 | –
46 | Cc1cn2c(n1)C(CNCC1=Cc3cc(Cl)ccc3OC1)CCC2 (centres unmarked) [DDD01073229] | 1.71 | – | –
47 | COc1ccccc1C(C)(C)NCc1ccc(C)o1 [DDD01074244] | 1.77 | 82.7 | –
48 | CC(=O)N(c1ccc(C)cc1)c1nc(CN2CCCC(C)C2)cs1 (centres unmarked) [DDD01075341] | 1.83 | 86.4 | –
49 | CCC(NCc1ccccc1Cl)c1ccccc1OCC(=O)NC (centres unmarked) [DDD01075649] | 1.9 | 81.7 | IC50 [3]: > 12.5 µM; Emax [4]: 57.7%; IC50 [5]: 3.66 µM; Emax [6]: 86.1%
50 | CCC(NCc1ccccc1C)c1ccccc1OCC(=O)NC (centres unmarked) [DDD01075651] | – | – | IC50 [7]: > 12.5 µM; IC50 [8]: 0.85 µM; Emax [9]: 76.9%; Emax [10]: 60.7%; IC50 [11]: 2.43 µM; Emax [12]: 84.1%
51 | CCC(NCc1cccc(Cl)c1)c1ccccc1OCC(=O)NC (centres unmarked) [DDD01075652] | 1.31 | 76.5 | –
52 | CC(C)Oc1ccc(C(O)CNCc2ccccc2C(F)(F)F)cc1 (centres unmarked) [DDD01076007] | 1.5 | 80.1 | –
53 | Cc1cnn(CCCNCc2csc(COc3ccccc3)n2)c1 [DDD01077297] | 1.25 | 85.8 | IC50 [3]: 7.24 µM; Emax [4]: 63.7%; IC50 [5]: 1.2 µM; Emax [6]: 86.7%
54 | CO[C@@H]1CCN(Cc2ccoc2)C[C@@H]1Cc1ccccc1 [DDD01081909] | – | – | IC50 [8]: 1.08 µM; Emax [9]: 85.9%
55 | FC1(F)CCN(Cc2cccnc2)CC12CCN(c1ccccc1)C2 (centres unmarked) [DDD01082961] | 1.65 | 91.5 | –
56 | Fc1cnc(N2CCCC3(CCN(Cc4ccoc4)C3)C2)nc1 (centres unmarked) [DDD01084184] | 1.79 | 83.1 | –
57 | CC(C)[C@H](CO)Nc1nccc(-c2c[nH]nc2-c2ccncc2)n1 [DDD01235869] | 1.69 | 82 | –
58 | CC(Nc1nc(-c2ccccc2)nc2c1CCNCC2)c1cccnc1 (centres unmarked) [DDD01244613] | 1.58 | 92.9 | –
59 | Cc1ncc(CN(C)C2CCCN(CCc3ccccc3)C2)n1C (centres unmarked) [DDD01244648] | – | – | IC50 [7]: 6.24 µM; IC50 [8]: 0.88 µM; Emax [9]: 88.5%; Emax [10]: 55.1%; IC50 [11]: 1.78 µM; Emax [12]: 88.7%
60 | CC(C)=CCN1CCC2(CC1)c1ccccc1[C@@H](N1CCSCC1)[C@@H]2O [DDD01245335] | 1.31 | 82.4 | –
